US7208505B2, “β3 adrenergic agonists” (Eli Lilly and Company, priority 2001, dated 2007)

Biological target: T1, human β3 adrenergic receptor (Homo sapiens, UniProt P13945)
T1 construct: expressed in transfected cells
Assay: whole cell receptor coupled c-AMP assay (Emax relative to isoproterenol)
Assay type: cell-based
Conditions: % intrinsic activity: maximal response divided by isoproterenol maximal response times 100; transfected CHO cells; average of at least 3 runs
From the text: The genes encoding the human β1-adrenergic receptor (Frielle et al., Proc. Natl. Acad. Sci., 84:7920–7924, 1987), the human β2-adrenergic receptor (Kobika et al., Proc. Natl. Acad. Sci., 84:46–50, 1987, Emorine et al., Proc. Natl. Acad. Sci., 84:6995–6999, 1987) and the human β3 adrenergic receptor (Granneman et al., Molecular Pharmacology, 44(2):264–70, 1993) are individually subcloned into a phd expression vector (Grinnell et al., Bio/Technology, 5:1189–1192, 1987) and transfected into the DXB-11 Chinese hamster ovary (CHO) cell line by calcium phosphate precipitation methodology. The stably transfected cells are grown to 95% confluency in 95% Dulbecco's modified Eagles Medium (DMEM), 5% fetal bovine serum and 0.01% proline. Media is removed and the cells are washed with phosphate buffered (pH 7.4) saline (without magnesium and calcium). Cells are then lifted using an enzyme free cell dissociation solution (Specialty Media, Lavallette, N.J.) and pelleted by centrifugation.
Cells from each of the above cell lines are resuspended and added (20,000/well) to a 96-well plate. Cells are incubated at 37° C. with representative compounds of the invention for 20 minutes in buffer (Hank's balanced salt solution, 10 mM HEPES, 0.1% BSA, 1 mM L-ascorbic acid, 0.2% dimethyl sulfoxide, 1 mM 3-isobutyl-1-methylxanthine, pH 7.4). After halting the incubation with quench buffer (50 mM Na Acetate, 0.25% Triton X-100, pH 5.8), the c-AMP level is quantified by scintillation proximity assay (SPA) using a modification of the commercially available c-AMP kit (Amersham, Arlington Heights, Ill.) with rabbit anti-cAMP antibody (ICN Biomedicals, Aurora, Ohio) for the kit.
Sigmoidal dose response curves, from the whole cell receptor coupled c-AMP assay are fit to a four parameter logistic equation using non linear regression: y=(a−d)/(1+(Dose/c)^b)+d where a and d are responses at zero and maximal dose, b is the slope factor and c is the EC50 as previously described (DeLean et al., Am. J. Physiol., 235, E97-E102, 1978). EC50 is assessed as the concentration producing 50% of the maximum response to each agonist.
Isoproterenol is accepted in the art as a non-selective β3 agonist and is widely used as a comparator in evaluating the activity of compounds. See Trends in Pharm. Sci., 15:3, 1994. The % intrinsic activity (Emax) of representative compounds of the invention is assessed relative to isoproterenol by the compound's maximal response divided by the isoproterenol maximal response times 100.

T1 sequence (P13945 whole entry): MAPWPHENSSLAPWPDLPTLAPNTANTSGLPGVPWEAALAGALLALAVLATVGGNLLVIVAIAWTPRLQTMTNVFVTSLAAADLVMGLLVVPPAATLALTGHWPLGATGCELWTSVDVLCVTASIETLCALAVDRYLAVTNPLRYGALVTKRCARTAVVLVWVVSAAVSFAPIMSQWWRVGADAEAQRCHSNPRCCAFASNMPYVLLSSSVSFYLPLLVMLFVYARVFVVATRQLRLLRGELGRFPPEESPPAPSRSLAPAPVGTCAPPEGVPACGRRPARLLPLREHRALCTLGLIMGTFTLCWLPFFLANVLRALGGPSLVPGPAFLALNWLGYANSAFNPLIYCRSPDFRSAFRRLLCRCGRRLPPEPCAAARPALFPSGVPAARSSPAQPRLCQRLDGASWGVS

CC(C)(Cc1c[nH]c2c(OCC#N)cccc12)NC[C@H](O)COc1ccccc1-n1cccc1 [Example 1]
Emax (%) ± SEM: 64.1 ± 4.5%

CC(C)(Cc1c[nH]c2c(OCC(N)=O)cccc12)NC[C@H](O)COc1ccccc1-n1cccc1 [Example 3]
Emax (%) ± SEM: 68.9 ± 2.6%

CC(C)(Cc1c[nH]c2c(OCC#N)cccc12)NCC(O)COc1ccccc1-c1ccoc1 (stereo not drawn) [Example 5]
Emax (%) ± SEM: 66.0 ± 3.6%

CC(C)(Cc1c[nH]c2c(OCC#N)cccc12)NC[C@H](O)COc1ccccc1-c1cocn1.O=C(O)C(F)(F)F [Example 6]
Emax (%) ± SEM: 55.0 ± 3.4%

CC(C)(Cc1c[nH]c2c(OCC#N)cccc12)NC[C@H](O)COc1ccccc1-c1cnco1.O=C(O)C(F)(F)F [Example 7]
Emax (%) ± SEM: 58.4 ± 1.7%

CC(C)(Cc1c[nH]c2c(OCC#N)cccc12)NC[C@H](O)COc1ccccc1-c1ncco1.O=C(O)C(F)(F)F [Example 8]
Emax (%) ± SEM: 82.2 ± 3.8%

Cc1cc(-c2ccccc2OC[C@@H](O)CNC(C)(C)Cc2c[nH]c3c(OCC#N)cccc23)on1.O=C(O)C(F)(F)F [Example 10]
Emax (%) ± SEM: 63.2 ± 5.3%

CC(C)(Cc1c[nH]c2ccccc12)NC[C@H](O)COc1ccccc1-c1ccc(C#N)s1.Cl [Example 11]
Emax (%) ± SEM: 69.0 ± 2.3%

CC(C)(Cc1c[nH]c2c(OCC#N)cccc12)NC[C@H](O)COc1ccccc1-c1ccc(C#N)s1.O=C(O)C(F)(F)F [Example 12]
Emax (%) ± SEM: 77.7 ± 4.6%

Cc1ccc(-c2ccccc2OC[C@@H](O)CNC(C)(C)Cc2c[nH]c3ccccc23)s1.O=C(O)C(F)(F)F [Example 13]
Emax (%) ± SEM: 63.4 ± 0.3%

Cc1ccc(-c2ccccc2OC[C@@H](O)CNC(C)(C)Cc2c[nH]c3c(OCC#N)cccc23)s1.O=C(O)C(F)(F)F [Example 14]
Emax (%) ± SEM: 75.2 ± 3.0%

CC(C)(Cc1c[nH]c2ccccc12)NC[C@H](O)COc1ccccc1-c1csc(C#N)c1.O=C(O)C(F)(F)F [Example 15]
Emax (%) ± SEM: 50.2 ± 7.3%

CC(C)(Cc1c[nH]c2c(OCC#N)cccc12)NC[C@H](O)COc1ccccc1-c1csc(C#N)c1.O=C(O)C(F)(F)F [Example 16]
Emax (%) ± SEM: 54.2 ± 2.2%

Cc1cc(-c2ccccc2OC[C@@H](O)CNC(C)(C)Cc2c[nH]c3ccccc23)cs1.O=C(O)C(F)(F)F [Example 17]
Emax (%) ± SEM: 43.1 ± 3.0%

Cc1cc(-c2ccccc2OC[C@@H](O)CNC(C)(C)Cc2c[nH]c3c(OCC#N)cccc23)cs1.O=C(O)C(F)(F)F [Example 18]
Emax (%) ± SEM: 52.3 ± 0.7%

CC(C)(Cc1c[nH]c2ccccc12)NC[C@H](O)COc1ccccc1-c1cc(C#N)cs1.O=C(O)C(F)(F)F [Example 19]
Emax (%) ± SEM: 49.1 ± 4.6%

CC(C)(Cc1c[nH]c2c(OCC#N)cccc12)NC[C@H](O)COc1ccccc1-c1cc(C#N)cs1.O=C(O)C(F)(F)F [Example 20]
Emax (%) ± SEM: 59.1 ± 3.1%

Cc1csc(-c2ccccc2OC[C@@H](O)CNC(C)(C)Cc2c[nH]c3ccccc23)c1.O=C(O)C(F)(F)F [Example 21]
Emax (%) ± SEM: 61.3 ± 3.2%

Cc1csc(-c2ccccc2OC[C@@H](O)CNC(C)(C)Cc2c[nH]c3c(OCC#N)cccc23)c1.O=C(O)C(F)(F)F [Example 22]
Emax (%) ± SEM: 66.0 ± 0.9%

CC(C)(Cc1c[nH]c2c(NS(=O)(=O)c3ccccc3)cccc12)NC[C@H](O)COc1ccccc1-c1cccs1 [Example 25]
Emax (%) ± SEM: 89.6 ± 10.9%

CC(C)(Cc1c[nH]c2c(NS(=O)(=O)c3ccccc3)cccc12)NC[C@H](O)COc1ccccc1-c1ccon1 [Example 26]
Emax (%) ± SEM: 70.9 ± 5.4%

CC(C)(Cc1c[nH]c2c(NS(C)(=O)=O)cccc12)NC[C@H](O)COc1ccccc1-c1cccs1 [Example 27]
Emax (%) ± SEM: 81.0 ± 3.2%

CC(C)(Cc1c[nH]c2c(NS(C)(=O)=O)cccc12)NC[C@H](O)COc1ccccc1-c1ccon1 [Example 28]
Emax (%) ± SEM: 58.5 ± 0.5%

CC(C)(Cc1c[nH]c2c(NS(C)(=O)=O)cccc12)NC[C@H](O)COc1ccccc1-c1ccc(S(N)(=O)=O)s1 [Example 30]
Emax (%) ± SEM: 90.0 ± 6.6%

CC(C)(Cc1c[nH]c2ccccc12)NC[C@H](O)COc1ccccc1-c1cocn1 [Example 31]
Emax (%) ± SEM: 62.4 ± 2.1%

CC(C)(Cc1c[nH]c2ccccc12)NC[C@H](O)COc1ccccc1-n1cccc1 [Example 32]
Emax (%) ± SEM: 58.9 ± 1.9%

CC(C)(Cc1c[nH]c2ccccc12)NC[C@H](O)COc1ccccc1-c1ncco1 [Example 33]
Emax (%) ± SEM: 75.9 ± 1.9%

CC(C)(Cc1c[nH]c2ccccc12)NC[C@H](O)COc1ccccc1-c1cnco1 [Example 34]
Emax (%) ± SEM: 64.5 ± 2.1%

CC(C)(Cc1c[nH]c2ccccc12)NC[C@H](O)COc1ccccc1-n1ccc(C#N)c1 [Example 35]
Emax (%) ± SEM: 50.3 ± 2.2%

Cc1cc(-c2ccccc2OC[C@@H](O)CNC(C)(C)Cc2c[nH]c3ccccc23)on1 [Example 36]
Emax (%) ± SEM: 63.9 ± 1.6%

CC(C)(Cc1c[nH]c2c(-c3cccc(C(F)(F)F)c3)cccc12)NC[C@H](O)COc1ccccc1-c1cccs1 [Example 37]
Emax (%) ± SEM: 82.0 ± 4.3%

CC(C)(Cc1c[nH]c2c(-c3cccc(C(F)(F)F)c3)cccc12)NC[C@H](O)COc1ccccc1-c1ccon1 [Example 38]
Emax (%) ± SEM: 78.0 ± 2.8%

CC(C)(Cc1c[nH]c2c(-c3cccc(C(F)(F)F)c3)cccc12)NC[C@H](O)COc1ccccc1-n1cccc1 [Example 39]
Emax (%) ± SEM: 71.7 ± 3.0%

CCOC(=O)c1cccc(-c2cccc3c(CC(C)(C)NC[C@H](O)COc4ccccc4-c4cccs4)c[nH]c23)c1 [Example 40]
Emax (%) ± SEM: 73.3 ± 4.6%

CCOC(=O)c1cccc(-c2cccc3c(CC(C)(C)NC[C@H](O)COc4ccccc4-c4ccon4)c[nH]c23)c1 [Example 41]
Emax (%) ± SEM: 73.1 ± 1.0%

CCOC(=O)c1cccc(-c2cccc3c(CC(C)(C)NC[C@H](O)COc4ccccc4-n4cccc4)c[nH]c23)c1 [Example 42]
Emax (%) ± SEM: 61.0 ± 4.5%

COC(=O)c1ccc(-c2cccc3c(CC(C)(C)NC[C@H](O)COc4ccccc4-c4cccs4)c[nH]c23)cc1 [Example 43]
Emax (%) ± SEM: 66.6 ± 3.1%

COC(=O)c1ccc(-c2cccc3c(CC(C)(C)NC[C@H](O)COc4ccccc4-c4ccon4)c[nH]c23)cc1 [Example 44]
Emax (%) ± SEM: 38.5 ± 2.3%

COC(=O)c1ccc(-c2cccc3c(CC(C)(C)NC[C@H](O)COc4ccccc4-n4cccc4)c[nH]c23)cc1 [Example 45]
Emax (%) ± SEM: 41.9 ± 4.5%

CC(=O)c1cccc(-c2cccc3c(CC(C)(C)NC[C@H](O)COc4ccccc4-c4cccs4)c[nH]c23)c1 [Example 46]
Emax (%) ± SEM: 68.2 ± 2.2%

CC(=O)c1cccc(-c2cccc3c(CC(C)(C)NC[C@H](O)COc4ccccc4-c4ccon4)c[nH]c23)c1 [Example 47]
Emax (%) ± SEM: 69.2 ± 2.0%

CC(=O)c1ccc(-c2cccc3c(CC(C)(C)NC[C@H](O)COc4ccccc4-c4cccs4)c[nH]c23)cc1 [Example 48]
Emax (%) ± SEM: 60.4 ± 6.0%
